Where “and” joins values, the source holds several entries; their conditions need not be identical. Identical values can stand only once.
How the values were obtained:
Type in all cases: in vivo
[1] = system: patients with moderate or severe neuropathic pain; assay: Multi-centre, double blind placebo controlled crossover study of devazepide as adjunctive therapy to strong opioids
[2] = system: patients with neuropathic pain; assay: Open label multicentre continuation study of devazepide (clinical assessment study); conditions: devazepide 1.25 mg, 2.5 mg or 5.0 mg twice daily for up to 26 weeks
Description: Patients who took part in the study had pain with a neuropathic element, and were taking regular doses of strong opioids. […] The primary objective of this study was to compare descriptive and visual analogue scale (VAS) assessments of pain and pain relief in patients with neuropathic pain. […] Devazepide treatment was continued for a period of up to six months. During the study patients were required to remain on regular doses of opioids at a dose prescribed by the investigator. Patients were assessed at clinic visits at week 1, week 2 (dose escalation) and thereafter at routine monthly clinic visits. At weekly intervals for the first eight weeks and at monthly intervals thereafter, patients recorded pain and global pain relief using VAS and descriptive pain questionnaires. The questionnaires were returned to the Investigator at the monthly visits. At each clinic visit the Investigator assessed safety and the patients' pain relief, reviewed the dosage, and decided if devazepide treatment should be continued.

[3] = system: patient undergoing opioid therapy; assay: Clinical studies of devazepide in combination with an opioid (opioid dose reduction); conditions: for reduction of opioid dose: clinical studies, devazepide with opioid

For `CN1C(=O)[C@@H](NC(=O)c2cc3ccccc3[nH]2)N=C(c2ccccc2)c2ccccc21` [devazepide, 3s-(−) 1,3dihydro-3-(2-indolecarbonylamino)-1-methyl-5-phenyl-2H-1,4-benzodiazepin-2-one], the “Analgesic use expressed as a percentage of pre-treatment use (sum of daily dose)” value (from here on “Analgesic use expressed as a percentage”) ([1]; in vivo) was 100% and 67%, the “Analgesic use expressed as a percentage” value ([1]; patient ap06/05, analgesic morphine (mg), devazepide 1.25 mg twice daily for two weeks) was 104% and the “Analgesic use expressed as a percentage” value ([1]; patient ap06/05, analgesic morphine (mg), devazepide 5 mg twice daily for two weeks) was 100%. The “Analgesic use expressed as a percentage” value ([1]; patient ap06/05, analgesic tramadol (mg), devazepide 1.25 mg twice daily for two weeks) was 79%, the “Analgesic use expressed as a percentage” value ([1]; patient ap06/05, analgesic tramadol (mg), devazepide 5 mg twice daily for two weeks) was 54% and the “Analgesic use expressed as a percentage” value ([1]; patient gg01/01, analgesic co-codamol (tablets), devazepide 1.25 mg twice daily for two weeks) was 106%. For the same compound, the “Analgesic use expressed as a percentage” value ([1]; patient gg01/01, analgesic co-codamol (tablets), devazepide 5 mg twice daily for two weeks) was 78%, the “Analgesic use expressed as a percentage” value ([1]; patient gg03/03, analgesic morphine (mg), devazepide 1.25 mg twice daily for two weeks) was 55% and the “Analgesic use expressed as a percentage” value ([1]; patient gg03/03, analgesic morphine (mg), devazepide 5 mg twice daily for two weeks) was 93%. For the same compound, the “Analgesic use expressed as a percentage” value ([1]; patient ng02/02, analgesic diclofenac (mg), devazepide 1.25 mg twice daily for two weeks) was 17%, the “Analgesic use expressed as a percentage” value ([1]; patient ng02/02, analgesic diclofenac (mg), devazepide 5 mg twice daily for two weeks) was 50% and the “Analgesic use expressed as a percentage” value ([1]; patient ng02/02, analgesic morphine (mg), devazepide 1.25 mg twice daily for two weeks) was 87%. For the same compound, the “Analgesic use expressed as a percentage” value ([1]; patient ng02/02, analgesic morphine (mg), devazepide 5 mg twice daily for two weeks) was 84%, the “Analgesic use expressed as a percentage” value ([1]; patient ng05/05, analgesic morphine (mg), devazepide 1.25 mg twice daily for two weeks) was 104% and the “Analgesic use expressed as a percentage” value ([1]; patient ng05/05, analgesic morphine (mg), devazepide 5 mg twice daily for two weeks) was 100%. The “Analgesic use expressed as a percentage” value ([1]; patient ng05/05, analgesic paracetamol (mg), devazepide 1.25 mg twice daily for two weeks) was 48%, the “Analgesic use expressed as a percentage” value ([1]; patient ng05/05, analgesic paracetamol (mg), devazepide 5 mg twice daily for two weeks) was 14% and the “Analgesic use expressed as a percentage” value ([1]; patient sj03/03, analgesic morphine (mg), devazepide 1.25 mg twice daily for two weeks) was 93%. For the same compound, the “Analgesic use expressed as a percentage” value ([1]; patient sj03/03, analgesic morphine (mg), devazepide 5 mg twice daily for two weeks) was 97%, the “Analgesic use expressed as a percentage” value ([1]; patient sj03/03, analgesic morphine (ml), devazepide 1.25 mg twice daily for two weeks) was 13% and the “Analgesic use expressed as a percentage” value ([1]; patient sj03/03, analgesic morphine (ml), devazepide 5 mg twice daily for two weeks) was 5%. The “Analgesic use expressed as a percentage” value ([1]; patient sj10/73, analgesic dihydrocodeine (mg), devazepide 1.25 mg twice daily for two weeks) was 100%, the “Analgesic use expressed as a percentage” value ([1]; patient sj10/73, analgesic dihydrocodeine (mg), devazepide 5 mg twice daily for two weeks) was 50% and the “Analgesic use expressed as a percentage” value ([1]; patient sj10/73, analgesic morphine (mg), devazepide 1.25 mg twice daily for two weeks) was 100%. For the same compound, the “Analgesic use expressed as a percentage” value ([1]; patient sj10/73, analgesic morphine (mg), devazepide 5 mg twice daily for two weeks) was 98%, the “Analgesic use expressed as a percentage” value ([1]; patient sj10/73, analgesic paracetamol (mg), devazepide 1.25 mg twice daily for two weeks) was 75% and the “Analgesic use expressed as a percentage” value ([1]; patient sj10/73, analgesic paracetamol (mg), devazepide 5 mg twice daily for two weeks) was 50%. For the same compound, the “patients who appeared to achieve long-term pain relief” value ([2]; of seventeen patients, long-term = 5-26 weeks, with regular opioids) was “ten”, the daily opioid dose ([2]; several patients) was “markedly reduced” and the “reduction of opioid dose” value ([3]; in others) was no more than 75%. For the same compound, the “reduction of opioid dose” value ([3]; in some cases) was no more than 95% and the “effect in combination with an opioid” value ([3]; opioid dose reduced concurrent with improved analgesia) was “superpotentiating”.
